Measured values taken from PMC7297817, “Pharmacological Characterization of a Betaine/GABA Transporter 1 (BGT1) Inhibitor Displaying an Unusual Biphasic Inhibition Profile and Anti-seizure Effects” (Neurochemical Research, 2020).

What was measured:
M4 = target: T1, M4 (Homo sapiens, UniProt P08173); assay: NIMH PDSP radioligand binding, M4
T1 construct: purchased NIMH Psychoactive Drug Screening Program (PDSP)

5-HT3 = target: T2, 5-HT3 (Homo sapiens, UniProt P46098); assay: NIMH PDSP radioligand binding, 5-HT3; settings: radioligand [3H]LY278584, n=4
T2 construct: purchased NIMH Psychoactive Drug Screening Program (PDSP)

BZP rat brain = assay: NIMH PDSP radioligand binding, BZP rat brain; settings: 10 μM; radioligand [3H]Flunitrazepam; n=4
Protocol: IC50 values in μM (Ki μM)^a. The targets in bold were inhibited by >35% at 10 μM.

Beta3 = target: T3, Beta3 (Homo sapiens, UniProt P13945); assay: NIMH PDSP radioligand binding, Beta3; settings: radioligand [3H]CGP12177, n=4
T3 construct: purchased NIMH Psychoactive Drug Screening Program (PDSP)

[1] = test system: tsA201 cells transiently expressing hBGT1; assay: Fluo-4 Ca2+-assay in tsA201 cells transiently expressing hBGT1; assay type: cell-based, human; settings: within the 3 min timeframe; blocked by BAPTA/AM
Protocol: Emission was recorded for 20 s. before adding the compounds (at 4 × concentrations) to the HBSS-HEPES buffer to determine the baseline. […] Data presented is the pooled data of at least three independent experiments with three technical replicates. Changes in fluorescence units (ΔFU) were determined as the maximum fluorescent signal within the 190 s minus the average of the baseline.

Alpha2A = target: T4, Alpha2A (Homo sapiens, UniProt P08913); assay: NIMH PDSP radioligand binding, Alpha2A; settings: radioligand [3H]rauwolscine, n=4
T4 construct: purchased NIMH Psychoactive Drug Screening Program (PDSP)

M2 = target: T5, M2 (Homo sapiens, UniProt P08172); assay: NIMH PDSP radioligand binding, M2
T5 construct: purchased NIMH Psychoactive Drug Screening Program (PDSP)

Alpha1D = target: T6, Alpha1D (Homo sapiens, UniProt P25100); assay: NIMH PDSP radioligand binding, Alpha1D; settings: radioligand [3H]prazosine, n=4
T6 construct: purchased NIMH Psychoactive Drug Screening Program (PDSP)

DOR = target: T7, DOR (Homo sapiens, UniProt P41143); assay: NIMH PDSP radioligand binding, DOR; settings: radioligand [3H]DADLE, n=4
T7 construct: purchased NIMH Psychoactive Drug Screening Program (PDSP)

H1 = target: T8, H1 (Homo sapiens, UniProt P35367); assay: NIMH PDSP radioligand binding, H1; settings: radioligand [3H]pyrilamine, n=4
T8 construct: purchased NIMH Psychoactive Drug Screening Program (PDSP)

Alpha1B = target: T9, Alpha1B (Homo sapiens, UniProt P35368); assay: NIMH PDSP radioligand binding, Alpha1B; settings: radioligand [3H]prazosine, n=4
T9 construct: purchased NIMH Psychoactive Drug Screening Program (PDSP)

[2] = Rotarod test of minimal motor impairment; assay type: in vivo, mouse; settings: mouse, in vivo, ip; CF-1 mice of the MES test; probit analysis
Protocol: (§1) The rotarod test was performed just prior to the three seizure tests.
(§2) Probit analysis was used to analyse the efficacy and tolerability results obtained from the dose–response studies and to calculate the median effective (ED50) dose, the median toxic dose (TD50), and the 95% confidence interval.

mice = assay: Rotarod test of minimal motor impairment; assay type: in vivo, mouse
Protocol: as §1, §2

M3 = target: T10, M3 (Homo sapiens, UniProt P20309); assay: NIMH PDSP radioligand binding, M3
T10 construct: purchased NIMH Psychoactive Drug Screening Program (PDSP)
T10 sequence (P20309 whole entry): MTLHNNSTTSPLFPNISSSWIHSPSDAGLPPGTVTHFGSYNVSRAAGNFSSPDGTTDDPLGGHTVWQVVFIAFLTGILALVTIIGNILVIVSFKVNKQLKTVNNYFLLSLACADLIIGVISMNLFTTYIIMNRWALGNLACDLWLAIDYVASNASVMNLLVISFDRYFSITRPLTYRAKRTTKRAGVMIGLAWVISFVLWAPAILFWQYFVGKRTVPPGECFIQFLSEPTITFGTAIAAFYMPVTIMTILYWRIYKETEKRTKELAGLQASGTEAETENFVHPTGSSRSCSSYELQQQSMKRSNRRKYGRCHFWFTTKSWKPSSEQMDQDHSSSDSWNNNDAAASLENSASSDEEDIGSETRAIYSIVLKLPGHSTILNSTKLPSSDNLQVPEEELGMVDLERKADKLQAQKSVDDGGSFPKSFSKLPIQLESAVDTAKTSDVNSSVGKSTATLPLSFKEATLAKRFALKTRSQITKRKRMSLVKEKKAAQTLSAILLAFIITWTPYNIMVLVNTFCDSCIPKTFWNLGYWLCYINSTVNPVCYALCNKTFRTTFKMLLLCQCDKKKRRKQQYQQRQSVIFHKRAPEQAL

T4 sequence (P08913 whole entry): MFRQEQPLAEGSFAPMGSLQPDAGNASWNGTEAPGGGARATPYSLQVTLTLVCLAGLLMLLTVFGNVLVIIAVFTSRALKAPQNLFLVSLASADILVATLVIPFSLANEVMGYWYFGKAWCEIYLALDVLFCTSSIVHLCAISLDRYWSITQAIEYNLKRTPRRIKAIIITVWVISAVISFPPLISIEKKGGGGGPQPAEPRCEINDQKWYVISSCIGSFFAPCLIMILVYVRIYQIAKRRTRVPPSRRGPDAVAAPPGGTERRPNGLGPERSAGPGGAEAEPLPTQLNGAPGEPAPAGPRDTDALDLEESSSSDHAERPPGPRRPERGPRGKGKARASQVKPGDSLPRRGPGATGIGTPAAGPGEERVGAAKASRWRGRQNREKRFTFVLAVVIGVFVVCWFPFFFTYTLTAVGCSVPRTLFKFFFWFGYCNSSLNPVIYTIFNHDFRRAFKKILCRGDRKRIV
T1 sequence (P08173 whole entry): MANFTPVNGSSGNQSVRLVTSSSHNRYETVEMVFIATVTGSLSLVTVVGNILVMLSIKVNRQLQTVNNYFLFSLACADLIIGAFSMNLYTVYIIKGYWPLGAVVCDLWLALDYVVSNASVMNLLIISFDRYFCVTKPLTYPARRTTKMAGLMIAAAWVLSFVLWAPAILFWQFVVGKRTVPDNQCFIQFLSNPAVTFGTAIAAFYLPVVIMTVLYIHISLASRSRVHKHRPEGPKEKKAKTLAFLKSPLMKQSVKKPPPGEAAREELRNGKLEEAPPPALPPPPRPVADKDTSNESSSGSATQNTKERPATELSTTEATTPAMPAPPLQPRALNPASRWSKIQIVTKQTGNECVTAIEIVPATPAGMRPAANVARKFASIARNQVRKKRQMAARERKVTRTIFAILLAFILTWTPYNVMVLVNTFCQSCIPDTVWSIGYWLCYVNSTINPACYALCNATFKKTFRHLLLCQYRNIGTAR
T5 sequence (P08172 whole entry): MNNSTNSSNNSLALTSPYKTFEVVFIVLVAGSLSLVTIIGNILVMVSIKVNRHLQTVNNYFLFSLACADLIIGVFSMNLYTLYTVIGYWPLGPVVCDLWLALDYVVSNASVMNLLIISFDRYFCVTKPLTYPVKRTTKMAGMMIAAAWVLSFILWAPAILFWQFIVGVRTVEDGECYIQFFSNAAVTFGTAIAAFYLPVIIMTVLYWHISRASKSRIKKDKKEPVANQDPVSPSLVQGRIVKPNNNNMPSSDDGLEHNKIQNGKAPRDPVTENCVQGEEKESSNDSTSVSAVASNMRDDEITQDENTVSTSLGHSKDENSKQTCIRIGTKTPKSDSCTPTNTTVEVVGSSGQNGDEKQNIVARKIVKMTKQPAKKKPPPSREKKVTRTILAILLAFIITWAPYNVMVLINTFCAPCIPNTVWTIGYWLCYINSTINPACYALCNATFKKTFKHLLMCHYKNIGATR
T9 sequence (P35368 whole entry): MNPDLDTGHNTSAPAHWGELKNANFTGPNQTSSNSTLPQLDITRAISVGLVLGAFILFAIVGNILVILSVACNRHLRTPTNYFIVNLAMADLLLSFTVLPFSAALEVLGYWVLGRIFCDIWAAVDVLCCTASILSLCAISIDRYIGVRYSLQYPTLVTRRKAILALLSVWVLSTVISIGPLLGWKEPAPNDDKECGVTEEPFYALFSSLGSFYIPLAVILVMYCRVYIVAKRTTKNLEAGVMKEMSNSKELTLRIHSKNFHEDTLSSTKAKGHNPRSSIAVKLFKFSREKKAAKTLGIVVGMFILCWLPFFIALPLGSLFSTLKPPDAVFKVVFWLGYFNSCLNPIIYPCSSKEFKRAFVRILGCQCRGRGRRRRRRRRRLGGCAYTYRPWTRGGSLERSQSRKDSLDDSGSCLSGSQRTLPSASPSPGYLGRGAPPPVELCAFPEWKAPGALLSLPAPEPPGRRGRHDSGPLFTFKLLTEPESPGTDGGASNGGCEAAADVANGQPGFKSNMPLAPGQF
T3 sequence (P13945 whole entry): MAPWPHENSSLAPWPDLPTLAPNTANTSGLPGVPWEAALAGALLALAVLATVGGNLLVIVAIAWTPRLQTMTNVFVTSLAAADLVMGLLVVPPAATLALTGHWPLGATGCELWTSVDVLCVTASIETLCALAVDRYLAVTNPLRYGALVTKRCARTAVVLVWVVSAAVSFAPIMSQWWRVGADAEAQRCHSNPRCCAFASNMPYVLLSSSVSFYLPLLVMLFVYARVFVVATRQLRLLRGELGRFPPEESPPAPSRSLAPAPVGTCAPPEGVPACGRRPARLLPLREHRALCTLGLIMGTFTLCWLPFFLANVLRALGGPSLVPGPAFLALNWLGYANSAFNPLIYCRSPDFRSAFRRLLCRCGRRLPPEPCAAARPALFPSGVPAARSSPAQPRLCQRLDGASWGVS
T7 sequence (P41143 whole entry): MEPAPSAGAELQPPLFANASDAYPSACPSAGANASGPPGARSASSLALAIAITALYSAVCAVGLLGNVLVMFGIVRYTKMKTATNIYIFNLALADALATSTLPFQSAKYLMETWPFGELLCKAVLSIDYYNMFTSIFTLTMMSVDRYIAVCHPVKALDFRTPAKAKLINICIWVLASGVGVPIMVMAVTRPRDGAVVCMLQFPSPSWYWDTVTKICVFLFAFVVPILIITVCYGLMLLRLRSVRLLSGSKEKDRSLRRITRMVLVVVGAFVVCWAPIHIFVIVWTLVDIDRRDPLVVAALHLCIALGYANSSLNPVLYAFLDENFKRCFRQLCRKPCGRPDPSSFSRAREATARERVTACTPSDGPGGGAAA
T6 sequence (P25100 whole entry): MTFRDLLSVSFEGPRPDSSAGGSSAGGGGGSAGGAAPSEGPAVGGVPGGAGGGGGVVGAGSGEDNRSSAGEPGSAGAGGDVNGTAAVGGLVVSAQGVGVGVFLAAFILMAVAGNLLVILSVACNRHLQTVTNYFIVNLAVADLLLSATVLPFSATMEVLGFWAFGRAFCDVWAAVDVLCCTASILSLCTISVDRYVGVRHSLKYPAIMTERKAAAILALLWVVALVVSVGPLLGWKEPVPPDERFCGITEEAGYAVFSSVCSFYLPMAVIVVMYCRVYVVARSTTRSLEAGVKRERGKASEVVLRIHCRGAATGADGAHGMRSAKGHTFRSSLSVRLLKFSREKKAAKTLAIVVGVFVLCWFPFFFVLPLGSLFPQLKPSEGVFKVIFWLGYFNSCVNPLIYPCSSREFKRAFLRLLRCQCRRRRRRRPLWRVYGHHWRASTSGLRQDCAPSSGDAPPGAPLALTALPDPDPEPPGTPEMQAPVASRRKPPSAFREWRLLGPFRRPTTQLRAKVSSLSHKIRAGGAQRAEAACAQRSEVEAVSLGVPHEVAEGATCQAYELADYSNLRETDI
T8 sequence (P35367 whole entry): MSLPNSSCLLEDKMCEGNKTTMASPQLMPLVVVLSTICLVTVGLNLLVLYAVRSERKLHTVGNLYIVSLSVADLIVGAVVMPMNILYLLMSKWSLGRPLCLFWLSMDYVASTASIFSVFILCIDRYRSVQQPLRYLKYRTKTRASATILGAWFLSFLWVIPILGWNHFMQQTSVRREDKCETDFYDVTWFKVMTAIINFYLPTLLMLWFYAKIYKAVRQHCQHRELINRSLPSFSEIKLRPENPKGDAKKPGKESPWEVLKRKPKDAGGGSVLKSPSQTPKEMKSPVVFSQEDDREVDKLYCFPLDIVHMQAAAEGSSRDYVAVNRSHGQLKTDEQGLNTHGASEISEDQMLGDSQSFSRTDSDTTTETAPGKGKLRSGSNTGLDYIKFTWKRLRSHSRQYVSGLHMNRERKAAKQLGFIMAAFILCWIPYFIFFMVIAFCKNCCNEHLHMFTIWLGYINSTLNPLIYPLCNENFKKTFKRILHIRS
T2 sequence (P46098 24-478): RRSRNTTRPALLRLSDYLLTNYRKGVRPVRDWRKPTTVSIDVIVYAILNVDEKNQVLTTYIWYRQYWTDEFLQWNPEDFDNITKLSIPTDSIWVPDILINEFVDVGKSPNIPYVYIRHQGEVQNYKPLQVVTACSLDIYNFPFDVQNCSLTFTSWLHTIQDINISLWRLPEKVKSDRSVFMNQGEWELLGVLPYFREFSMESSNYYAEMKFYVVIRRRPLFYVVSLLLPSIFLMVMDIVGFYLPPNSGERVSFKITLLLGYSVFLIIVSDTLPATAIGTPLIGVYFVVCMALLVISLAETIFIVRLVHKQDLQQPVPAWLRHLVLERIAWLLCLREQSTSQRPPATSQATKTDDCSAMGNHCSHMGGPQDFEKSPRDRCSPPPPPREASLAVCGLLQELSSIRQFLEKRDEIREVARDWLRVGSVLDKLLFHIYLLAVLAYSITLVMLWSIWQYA

Q: With `Cc1ccsc1C(=CCCN(C)[C@H]1CCCC[C@H]1C(=O)O)c1sccc1C` [SBV2-114, (1R,2S)-2-((4,4-bis(3-methylthiophen-2-yl)but-3-en-yl)(methyl)amino)cyclohexanecarboxylic acid] as the molecule, how does the inhibition at 10 µM (M4) read?
A: The inhibition at 10 µM was -5.7%.

Q: And the inhibition at 10 µM (5-HT3)?
A: The inhibition at 10 µM was -3%.

Q: And the “% inhibition” value (BZP rat brain)?
A: Its value is 9.1%.

Q: And the inhibition at 10 µM (Beta3)?
A: Its inhibition at 10 µM is 8.3%.

Q: And the “intracellular Ca2+ increase” value [1]?
A: Its value is “triggered an intracellular Ca^2+ increase at 200 μM and 500 μM”.

Q: What about the inhibition at 10 µM (Alpha2A) of the same molecule?
A: Its inhibition at 10 µM is 42.8%.

Q: And the inhibition at 10 µM (M2)?
A: The inhibition at 10 µM was -1.9%.

Q: And the inhibition at 10 µM (Alpha1D)?
A: Its inhibition at 10 µM is -4.7%.

Q: What about the inhibition at 10 µM (DOR) of the same molecule?
A: The inhibition at 10 µM was 36.6%.

Q: And the inhibition at 10 µM (H1)?
A: The inhibition at 10 µM was 51.2%.

Q: What about the inhibition at 10 µM (Alpha1B) of the same molecule?
A: Its inhibition at 10 µM is 1.9%.

Q: And the TD50 at 15 min [2]?
A: Its TD50 at 15 min is 163 mg/kg.

Q: And the “#Motor impairment/#Tested” value (mice; CF-1 mice, prior to MES, 50 mg/kg i.p., 15 min)?
A: Its value is 0/3.

Q: And the “#Motor impairment/#Tested” value (mice; CF-1 mice, prior to MES, 100 mg/kg i.p., 15 min)?
A: The value was 0/4.

Q: What about the “#Motor impairment/#Tested” value (mice; CF-1 mice, prior to MES, 125 mg/kg i.p., 15 min) of the same molecule?
A: The value was 0/7.

Q: What about the “#Motor impairment/#Tested” value (mice; CF-1 mice, prior to MES, 150 mg/kg i.p., 15 min) of the same molecule?
A: Its value is 2/6.

Q: What about the “#Motor impairment/#Tested” value (mice; CF-1 mice, prior to MES, 200 mg/kg i.p., 15 min) of the same molecule?
A: Its value is 3/4.

Q: And the “#Motor impairment/#Tested” value (mice; CF-1 mice, prior to s.c.PTZ, 150 mg/kg i.p., 30 min)?
A: Its value is 0/8.

Q: What about the “#Motor impairment/#Tested” value (mice; Frings mice, 50 mg/kg i.p., 15 min) of the same molecule?
A: Its value is 0/3.

Q: And the “#Motor impairment/#Tested” value (mice; Frings mice, 50 mg/kg i.p., 30 min)?
A: The value was 0/3.

Q: What about the “#Motor impairment/#Tested” value (mice; Frings mice, 50 mg/kg i.p., 60 min) of the same molecule?
A: Its value is 0/3.

Q: What about the “#Motor impairment/#Tested” value (mice; Frings mice, 50 mg/kg i.p., 120 min) of the same molecule?
A: Its value is 0/3.

Q: And the “#Motor impairment/#Tested” value (mice; Frings mice, 120 mg/kg i.p., 30 min)?
A: Its value is 0/4.

Q: And the “#Motor impairment/#Tested” value (mice; Frings mice, 120 mg/kg i.p., 60 min)?
A: Its value is 0/4.

Q: And the “#Motor impairment/#Tested” value (mice; Frings mice, 120 mg/kg i.p., 120 min)?
A: Its value is 0/4.

Q: What about the “#Motor impairment/#Tested” value (mice; Frings mice, 120 mg/kg i.p., 240 min) of the same molecule?
A: The value was 0/4.

Q: And the inhibition at 10 µM (M3)?
A: Its inhibition at 10 µM is 55.4%.
